In US20180116933A1, “ANTI-OXIDATIVE OR ANTI-AGING COMPOSITION CONTAINING 5-ADAMANTAN-1-YL-N-(2,4-DIHYDROXYBENZYL)-2,4-DIMETHOXYBENZAMIDE” (Amorepacific Corporation, priority 2015, published 2018):

Tests used:
[1] = DPPH free radical scavenging evaluation; format: biochemical; conditions: 0 to 200 μg/ml, DPPH 0.2 mM in methanol, 30 minutes, absorbance 517 nm (FIG. 2)
Protocol: The DPPH free radical scavenging evaluation method was performed as follows.
In 5-adamantan-1-yl-N-(2,4-dihydroxybenzyl)-2,4-dimethoxybenzamide (referred to as ‘AP736’ in FIG. 2) prepared in Example, a reaction product adjusted to a concentration of from 0 to 200 μg/ml and a methanol solution of DPPH (0.2 mM) were incubated for 30 minutes. The absorbance of the solution was measured at 517 nm. The scavenging ability was expressed by the value obtained by comparing the absorbance of the solution to that (100%) of the control DPPH solution in % as presented in the following Mathematical Formula 1.

[2] = test system: matrix metalloprotease-1 (MMP-1); assay: MMP-1 assay: UV-induced MMP-1 expression in HS68 human fibroblasts (MMP-1 ELISA kit); format: cell-based; conditions: UV-irradiated HS68 cells, 0.1, 0.5, and 1 μM, 48 hours (FIG. 3)
Protocol: In order to confirm the anti-aging effect of the sample, an experiment to see how much 5-adamantan-1-yl-N-(2,4-dihydroxybenzyl)-2,4-dimethoxybenzamide can inhibit the expression of matrix metalloprotease-1 (MMP-1) to be induced by ultraviolet (UV) rays was performed.
Human fibroblasts (HS68 cells, purchased from ATCC (Rockville, Md., USA)) were plated on a well plate at a density of 7.5×10^4 cells/well, then incubated in DMEM (Dulbecco's Modified Eagle's Medium) containing 10% FBS for 24 hours, then washed with PBS (phosphate-buffered saline), then 0.5 ml of PBS was added thereto, and the expression of MMP-1 was induced by irradiating the resultant incubated cells with ultraviolet rays. After changing to Serum-Free DMEM, the resultant was treated with 5-adamantan-1-yl-N-(2,4-dihydroxybenzyl)-2,4-dimethoxybenzamide (referred to as ‘AP736’ in FIG. 3) prepared in Example. The amount of the supernatant obtained after incubation for a certain period of time (48 hours) was measured by using an MMP-1 ELISA kit.
In other words, HS68 cells of human dermal fibroblasts were treated with ultraviolet rays to increase the expression of MMP-1, and the resulting HS68 cells were then treated with each sample to see whether the expression of MMP-1 decreased. The experimental results are illustrated in FIG. 3. […]

Raw 264.7 cells = assay: Cytotoxicity test (MTT method) in Raw 264.7 cells; format: cell-based
Protocol: RAW264.7 cells (obtained from ATCC (Rockville, Md., USA) as a murine macrophage cell line) were incubated in RPMI 1640 medium supplemented with FBS (10% heat-inactivated fetal bovine serum; Gibco, Grand Island, N.Y., USA), glutamine, antibiotics (penicillin and streptomycin) at 37° C. and 5% CO2.
In all experiments, cells were detached with a cell scraper. When cells were incubated at a concentration of 2×10^6 cells/mL in the experiment, the percentage of dead cells was 1% or less (confirmed by a trypan blue dye exclusion method).
In order to determine the appropriate concentration of extract treatment for anti-inflammatory evaluation of 5-adamantan-1-yl-N-(2,4-dihydroxybenzyl)-2,4-dimethoxybenzamide, the cytotoxicity of 5-adamantan-1-yl-N-(2,4-dihydroxybenzyl)-2,4-dimethoxybenzamide at each concentration was evaluated in the cells used in the experiments.
Raw 264.7 cells in the subculture were plated on a well plate at a density of […]. After 18 hours of cell incubation, the cells were subjected to a sample treatment so that the concentration of 5-adamantan-1-yl-N-(2,4-dihydroxybenzyl)-2,4-dimethoxybenzamide (referred to as ‘AP736’ in FIG. 1) was from 0 to 30 μM. The cells were incubated for 8 hours or 24 hours in an incubator. The cytotoxic effect was evaluated by the conventional MTT method. Before the last 3 hours of incubation, 10 μL of MTT {3-[4,5-dimethylthiazol-2-yl]-2,5-diphenyltetrazolium bromide} solution (10 mg/mL in phosphate-buffered saline, pH 7.4) was added to each well. To each well, 15% SDS (sodium dodecyl sulfate) was added to terminate the reaction, and the formazan crystal was then dissolved therein. Thereafter, the absorbance at 570 nm was measured on a microplate reader.

What does the source list for `COc1cc(OC)c(C23CC4CC(CC(C4)C2)C3)cc1C(=O)NCc1ccc(O)cc1O` [AP736, 5-adamantan-1-yl-N-(2,4-dihydroxybenzyl)-2,4-dimethoxybenzamide]?
percentage of DPPH radical scavenging activity [1]: increases; expression of MMP-1 [2]: tended to decrease; cell viability (Raw 264.7 cells; 10 μM, 8 hours): about 100%; cell viability (Raw 264.7 cells; 10 μM, 24 hours): about 100%; cell viability (Raw 264.7 cells; 20 μM, 8 hours): about 100%; cell viability (Raw 264.7 cells; 20 μM, 24 hours): about 100%; cell viability (Raw 264.7 cells; 30 μM, 24 hours): about 80%
